From US20230302104A1, “TREATMENT AND/OR PREVENTION OF A DISEASE OR A SYNDROME RELATED TO A VIRUS INFECTION” (priority 2020, published 2023)

Legend:
[1] = system: SARS-CoV-2 spike pseudovirus entry in ACE2 overexpressing A549 human lung alveolar basal epithelium cells; assay type: cell-based
[2] = system: SARS-CoV-2 spike pseudotyped lentivirus entry in HeLa cells overexpressing TMPRSS2; assay type: cell-based; settings: 10 µM

## plasma derived AAT
[1]
  effect on SARS-CoV-2 pseudoviral entry in combination with IFN-beta-1a: additive inhibitory effect
[2]
  inhibitory effect on SARS-CoV-2 pseudoviral cell-entry: no inhibitory effect

## rhAAT
[1]
  SARS-CoV-2 pseudovirus entry: inhibits viral entry of several viruses
